The text below walks through data of ChEMBL document CHEMBL1144048, “Facile preparation of new 4-phenylamino-3-quinolinecarbonitrile Src kinase inhibitors via 7-fluoro intermediates: identification of potent 7-amino analogs” (Bioorg Med Chem, 2008).

Converted amounts (≈) assume the structure as drawn. Where only a bound is given, the exact number is not on record here.

For one series, the target named is CYP3A4 (Homo sapiens, UniProt P08684). Kind of series: Inhibition of CYP3A4 at 3 uM. Type of series: ADME.
Chain of CYP3A4 (P08684 whole entry): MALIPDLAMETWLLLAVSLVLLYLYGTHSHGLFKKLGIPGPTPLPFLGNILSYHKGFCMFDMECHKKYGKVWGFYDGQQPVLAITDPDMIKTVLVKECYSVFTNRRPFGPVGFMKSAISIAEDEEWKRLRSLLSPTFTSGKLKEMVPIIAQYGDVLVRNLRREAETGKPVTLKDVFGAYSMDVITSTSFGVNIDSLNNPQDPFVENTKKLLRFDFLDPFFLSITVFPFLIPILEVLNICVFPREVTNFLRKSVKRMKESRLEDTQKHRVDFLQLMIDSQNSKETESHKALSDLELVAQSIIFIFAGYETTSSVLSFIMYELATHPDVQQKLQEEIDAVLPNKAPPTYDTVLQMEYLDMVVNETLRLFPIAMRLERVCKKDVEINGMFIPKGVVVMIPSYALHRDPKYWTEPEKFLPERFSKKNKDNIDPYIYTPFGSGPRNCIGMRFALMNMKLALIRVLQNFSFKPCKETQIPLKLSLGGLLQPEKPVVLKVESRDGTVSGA
For a further series, the target named is CYP2C9 (Homo sapiens, UniProt P11712). Kind of series: Inhibition of CYP2C9 at 3 uM. Type of series: ADME.
Chain of CYP2C9 (P11712 whole entry): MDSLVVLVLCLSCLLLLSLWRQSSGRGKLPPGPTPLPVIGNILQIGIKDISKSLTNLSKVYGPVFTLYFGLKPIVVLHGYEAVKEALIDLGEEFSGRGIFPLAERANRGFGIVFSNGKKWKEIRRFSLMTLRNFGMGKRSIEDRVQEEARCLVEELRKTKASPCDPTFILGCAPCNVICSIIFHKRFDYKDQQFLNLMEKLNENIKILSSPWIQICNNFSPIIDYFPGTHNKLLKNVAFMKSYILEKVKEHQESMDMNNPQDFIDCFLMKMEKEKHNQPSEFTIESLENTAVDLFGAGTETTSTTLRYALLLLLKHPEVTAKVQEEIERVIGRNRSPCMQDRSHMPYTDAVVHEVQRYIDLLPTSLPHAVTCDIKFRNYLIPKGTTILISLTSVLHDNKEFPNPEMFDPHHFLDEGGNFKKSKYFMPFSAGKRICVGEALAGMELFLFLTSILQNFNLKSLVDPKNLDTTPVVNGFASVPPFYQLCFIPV
For a further series, the target named is CYP2D6 (Homo sapiens, UniProt P10635). As to the kind of experiment: Inhibition of CYP2D6 at 3 uM. It is filed as ADME.
Chain of CYP2D6 (P10635 whole entry): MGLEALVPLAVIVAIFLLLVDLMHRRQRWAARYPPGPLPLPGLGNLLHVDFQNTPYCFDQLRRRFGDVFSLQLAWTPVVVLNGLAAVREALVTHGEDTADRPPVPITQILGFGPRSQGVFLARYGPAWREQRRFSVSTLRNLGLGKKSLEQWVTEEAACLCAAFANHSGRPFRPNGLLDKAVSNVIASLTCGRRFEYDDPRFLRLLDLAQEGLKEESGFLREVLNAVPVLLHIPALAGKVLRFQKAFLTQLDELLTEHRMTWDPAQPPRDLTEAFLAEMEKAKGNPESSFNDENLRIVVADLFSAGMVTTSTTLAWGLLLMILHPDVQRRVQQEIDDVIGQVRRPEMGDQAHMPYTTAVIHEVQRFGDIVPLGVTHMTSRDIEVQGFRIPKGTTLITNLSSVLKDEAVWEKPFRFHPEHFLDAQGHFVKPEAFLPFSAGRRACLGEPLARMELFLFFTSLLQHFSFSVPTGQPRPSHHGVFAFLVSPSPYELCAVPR
A short description of series [1]: Permeability across artificial membrane by PAMPA. The note with it: read-out: permeability. Type of series: ADME. On the technique in general: PAMPA measures passive passage across an artificial lipid membrane.
Series [2] in a line: Inhibition of human cSrc-vSrc fusion protein expressed in rat fibroblast cells by ELISA. It is filed as cell-based. For orientation: ELISA stands for enzyme-linked immunosorbent assay.
A further series concerns HT-29. Kind of series: Inhibition of tumor growth in human HT29 cells xenografted nude mouse at 150 mg/kg, po OD after 14 days relative to control. The note with it: HT-29, 336 h. It is filed as functional. For orientation: Xenograft models place foreign cells or tissue in a host animal.
Series [3] in a line: Stability in mouse plasma after 300 mins. It is filed as ADME, cell-free. The note with it: read-out: Stability.
Series [4] can be described thus: Drug level in nude mouse plasma at 50 mg/kg, po after 8 hrs. Also on record: dose 50 mg/kg, route oral. It is filed as ADME, organism-based.
Series [5] in a line: Drug level in nude mouse plasma at 50 mg/kg, po after 4 hrs. The arrangement: dose 50 mg/kg, route oral. Type of series: ADME, organism-based.
Series [6] can be described thus: Drug level in nude mouse plasma at 50 mg/kg, po after 24 hrs. It is filed as ADME, organism-based. Also on record: dose 50 mg/kg, route oral.
Series [7] is described as follows: Solubility at pH 7.4. It is filed as physicochemical. The note with it: buffer.

A word on the inhibition: it is the relative decrease from the control value, in per cent. In general, IC50 refers to the concentration needed to halve the response being measured. A higher IC50 goes with lower potency. The term inhibition in vivo denotes the share of the control response that was lost under treatment. As a reminder, the solubility is how much of the substance goes into solution per volume. On to `COc1cc(Nc2c(C#N)cnc3cc(NCCCN4CCN(C)CC4)c(OC)cc23)c(Cl)cc1Cl`, for which the inhibition at 3 µM at CYP3A4, against CYP2C9 and against CYP2D6 was less than 34% each time. Besides, the Papp in series [1] is 10.7 ×10⁻⁶ cm/s. In series [2], this compound showed an IC50 of 360 nM. In the series with HT-29, this compound showed an inhibition in vivo at 150 mg/kg of 63%. For the same compound, the remaining at 5 h in [3] was more than 70%. In series [4], this compound registered a concentration at 8 h of 520 ng/mL. The compound further registered a concentration at 4 h in [5] of 790 ng/mL. In [6], this compound showed a concentration at 24 h of 100 ng/mL. In [7], this compound displayed a solubility of 32 µg/mL (≈ 60.4 µM).

In turn, `COc1cc(Nc2c(C#N)cnc3cc(OCCCN4CCN(C)CC4)ccc23)c(Cl)cc1Cl` had an IC50 in series [2] of 710 nM.

In [2], `CCOc1cc2c(Nc3cc(OC)c(Cl)cc3Cl)c(C#N)cnc2cc1OCCOC` yielded an IC50 of 180 nM.

`COc1cc(Nc2c(C#N)cnc3cc(N(C)CCCN(C)C)c(OC)cc23)c(Cl)cc1Cl`: in series [2], 2700 nM corresponded to half-maximal inhibition (IC50).

In turn, `COCCOc1cc2ncc(C#N)c(Nc3cc(OC)c(Cl)cc3Cl)c2cc1OC` came in with a 50% inhibitory concentration (IC50) in [2] of 190 nM.

With `CCOc1cc2c(Nc3cc(OC)c(Cl)cc3Cl)c(C#N)cnc2cc1OCCCN1CCN(C)CC1`, the midpoint of inhibition in series [2], the IC50, lay at 85 nM.

Turning to `COc1cc(Nc2c(C#N)cnc3cc(NCCCN(C)C)c(OC)cc23)c(Cl)cc1Cl`, the inhibition at 3 µM at CYP3A4, against CYP2C9 and at CYP2D6 was less than 34% each time. Moreover, the Papp in series [1] was determined as 7.3 ×10⁻⁶ cm/s. In addition, in series [2], the IC50 worked out at 300 nM. This compound also had an inhibition in vivo at 150 mg/kg with HT-29 of 75%. In addition, in series [3], the remaining at 5 h was more than 70%. The compound further returned a concentration at 8 h in series [4] of 410 ng/mL. The compound also displayed a concentration at 4 h in series [5] of 610 ng/mL. Further, in series [6], the concentration at 24 h is 80 ng/mL. This compound came in with a solubility in series [7] of more than 100 µg/mL.

In turn, `COc1cc(Nc2c(C#N)cnc3cc(OCCCN4CCN(C)CC4)c(OC)cc23)c(Cl)cc1Cl` [BOSUTINIB] had an IC50 in series [2] of 100 nM. The inhibition in vivo at 150 mg/kg in the series on HT-29 came to 50%. The concentration at 4 h in series [5] amounted to 1060 ng/mL. For the same compound, the concentration at 24 h in series [6] is 47 ng/mL.

In turn, `COCCOc1ccc2c(Nc3cc(OC)c(Cl)cc3Cl)c(C#N)cnc2c1` gave an IC50 in series [2] of 1600 nM.

For `COCCOc1ccc2c(Nc3ccc(Cl)cc3Cl)c(C#N)cnc2c1`, in series [2], the IC50 was more than 10000 nM.

`COCCNc1cc2ncc(C#N)c(Nc3cc(OC)c(Cl)cc3Cl)c2cc1OC` returned an IC50 in series [2] of 1500 nM.

`COc1cc(Nc2c(C#N)cnc3cc(NCCCN4CCOCC4)c(OC)cc23)c(Cl)cc1Cl` yielded an IC50 in series [2] of 390 nM.
